pEC50: −log10 of the molar value. Bounds are passed on as bounds.

This note sets out measurements from patent US11390631B1, “Benzodiazepine derivatives as RSV inhibitors” (priority 2015, dated 2022).

Data set [1] is described as follows: Cytotoxicity on parallel plate without virus, ATPlite readout. In kind it is cell-based. As to conditions: human, Hep-2 cells (no virus), Hep-2 cells without virus, 5-day incubation. How it is done:
Following extensive parameter testing, the final assay is run as follows: Hep-2 cells are seeded into the inner 60 wells of a 96-well plate at 8,000 cells per well in a volume of 50 μL using Growth Media (DMEM without phenol red, 1% L-Glut, 1% Penn/Strep, 1% nonessential amino acids, 10% heat-inactivated FBS). 2-fold serial dilutions of control and test compounds are added to the wells in duplicate in a total volume of 25 μL. Viral stock is then added to the wells at a multiplicity of infection (MOI) of 0.1 in a volume of 25 μL, bringing the total volume of each well to 100 μL. The MOI is calculated using the PFU/mL, or TCID50 if unavailable. Each 96-well plate has a control column of 6 wells with cells and virus but no compound (negative control, max CPE), a column with cells but no compound or virus (positive control, minimum CPE), and a column with no cells or virus or compound (background plate/reagent control). The control wells with cells but no virus are given an additional 25 uL of growth media containing an equal quantity of sucrose as those wells receiving the viral stock in order to keep consistent in media and volume conditions. The outer wells of the plate are filled with 125 μL of moat media (DMEM, 1% Penn/Strep) to act as a thermal and evaporative moat around the test wells. Following a 5-day incubation period, the plates are read using ATPlite (50 uL added per well), which quantifies the amount of ATP (a measure of cell health) present in each well. Assay plates are read using the Envision luminometer. In parallel, cytotoxicity is examined on an additional 96-well plate treated in an identical manner, but substituting the 25 μL of viral stock for 25 μL of growth media. […] EC50 ranges are as follows: A<0.4 μM; B 0.4-0.8 μM; C>0.8 μM and CC50 ranges are as follows: A>50 μM; B 10-50 μM; C<10 μM.

Data set [2] deals with RSV-B, genotype B, strain 9320. Nature of the data set: RSV-B assay: A549 cells infected with RSV-B, qPCR or ATPlite readout. In kind it is cell-based, Human respiratory syncytial virus (HRSV). As to conditions: human respiratory syncytial virus, A549, read-out: Human RSV-B EC50. The text has this: Hep-2 cells, (originally derived from tumors grown in irradiated-cortisonised weanling rats that had been injected with epidermoid carcinoma tissue from a person's larynx, but later found to be indistinguishable from HeLa cells by PCR DNA analysis), were used for the culturing of genotype B, strain 9320. Flasks were inoculated with RSV-B and viral stocks were collected once cytopathic effect (CPE) was greater than […]. Viral stocks in 25% o sucrose media were snap frozen using liquid nitrogen to increase viral stability. Viral stock titers were quantified by tissue culture infectious dose 50% o (TCID50) using 8,000 cells per well and 5-fold viral dilutions across a 96-well plate, cultured for 4 days. Viral stock titers were also quantified by a plaque forming unit assay, as described elsewhere.
The assay is run as follows: A549 cells (originally derived through explant culture from a person's carcinomatous lung tissue) are seeded into the inner 60 wells of a 96-well plate at 3,000 cells per well in a volume of 50 μL using A549 growth media (F-12K Media, 1% Penn/Strep, 1% nonessential amino acids, 10% heat-inactivated FBS). 2-fold serial dilutions of control and test compounds are added to the wells in duplicate in a total volume of 25 μL. Viral stock is then added to the wells at a multiplicity of infection (MOI) of 0.5 in a volume of 25 μL, bringing the total volume of each well to 100 μL. The MOI is calculated using the PFU/mL, or TCID50 if unavailable. Each 96-well plate has a control column of 6 wells with cells and virus but no compound (negative control, max CPE), a column with cells but no compound or virus (positive control, minimum CPE), and a column with no cells or virus or compound (background plate/reagent control). The control wells with cells but no virus are given an additional 25 uL of growth media containing an equal quantity of sucrose as those wells receiving the viral stock in order to keep consistent in media and volume conditions. The outer wells of the plate are filled with 125 μL of moat media (DMEM, 1% Penn/Strep) to act as a thermal and evaporative moat around the test wells. 6 days post infection, the plates are read using qPCR or ATP lite (50 uL added per well), which quantifies the amount of ATP (a measure of cell health) present in each well. Assay plates treated with APTlite are read using the Envision luminometer. […] EC50 ranges are as follows: A<0.4 μM; B 0.4-0.8 μM; C>0.8 μM.

Data set [3] concerns Human RSV-A (“Long” strain). Put plainly: RSV-A assay: inhibition of cytopathic effect in Hep-2 cells, ATPlite readout. In kind it is cell-based, Human respiratory syncytial virus (HRSV). To be noted: human respiratory syncytial virus, HEp-2, 120 h, read-out: Human RSV-A (“Long” strain) EC50. The method in brief: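 Hep-2 cells (8,000/well) were infected with RSV-A Long at MOI 0.1 alongside duplicate 2-fold compound dilutions. After 5 days, cell viability was read by ATPlite luminescence to give EC50. CC50 came from a parallel plate without virus.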

`O=C1Nc2ccccc2C(c2ccccc2)=N[C@@H]1Nc1nnc(-c2ccc(F)cc2)o1` [Example 7a] gave a CC50 at 5 days in data set [1] above 50 µM. Moreover, the pEC50 in data set [2] was below 6.10; in data set [3], 6.10 to 6.40.
Consider `O=C1Nc2ccccc2C(c2ccccc2)=N[C@@H]1Nc1nnc(-c2nc(-c3ccccc3)sc2N2CCOCC2)o1` [Example 340], for which the pEC50 in data set [2] and in data set [3] was above 6.40 in each case.
As for `O=C1Nc2ccccc2C(c2ccccc2)=N[C@@H]1Nc1nnc(-c2nc(-c3ccccn3)sc2N2CCOCC2)o1` [Example 341], the pEC50 in data set [2] and in data set [3] was above 6.40 in each case.
`O=C1Nc2ccccc2C(c2ccccc2)=N[C@@H]1Nc1nnc(-c2csc(N3CCOCC3)n2)o1` [Example 351]: the pEC50 in data set [2] and in data set [3] was 6.10 to 6.40 in each case.
Turning to `O=C1Nc2c(F)cccc2C(c2ccccc2)=N[C@@H]1Nc1nnc(-c2ccccc2N2CCOCC2)o1` [Example 355a], the pEC50 in data set [2] and in data set [3] was above 6.40 each time.
Turning to `O=C1Nc2ccccc2C(c2ccccc2)=NC1Nc1nnc(-c2ccc(-n3cccn3)cc2)[nH]1` (stereo not drawn) [Example 364], the pEC50 in data set [2] was 6.10 to 6.40; in data set [3], above 6.40.
As to `N#Cc1ccc(-c2ccc(NC3N=C(c4ccccc4)c4ccccc4NC3=O)nn2)cc1` (stereo not drawn) [Example 377], the pEC50 in data set [2] and in data set [3] was above 6.40 each time.
As to `CCc1nc(-c2nnc(N[C@H]3N=C(c4ccccc4)c4ccccc4NC3=O)o2)c(N2CCOCC2)s1` [Example 385], the pEC50 in data set [2] and in data set [3] was above 6.40 each time.
In the case of `O=C1Nc2ccccc2C(c2ccccc2)=N[C@@H]1Nc1nnc(-c2nc(C3CCC3)sc2N2CCOCC2)o1` [Example 387], the pEC50 in data set [2] and in data set [3] was above 6.40 throughout.
Take `O=C1Nc2ccccc2C(c2ccccc2)=N[C@@H]1Nc1nnc(-c2nc(-c3cccnc3)sc2N2CCOCC2)o1` [Example 388]: the pEC50 in data set [2] and in data set [3] was above 6.40 in each case.
As for `CC(C)n1cc(-c2nnc(N[C@H]3N=C(c4ccccc4)c4ccccc4NC3=O)o2)c(N2CCOCC2)n1` [Example 403], the pEC50 in data set [2] and in data set [3] was above 6.40 each time.
In the case of `CC(F)(F)c1nc(-c2nnc(N[C@H]3N=C(c4ccccc4)c4ccccc4NC3=O)o2)c(N2CCOCC2)s1` [Example 407], the pEC50 in data set [2] and in data set [3] was above 6.40 in each case.
For `O=C1Nc2ccccc2C(c2ccccc2)=N[C@@H]1Nc1nnc(-c2nc(-c3ccncc3)sc2N2CCOCC2)o1` [Example 429], the pEC50 in data set [2] and in data set [3] was above 6.40 throughout.
